Results taken from paper PMC6261997, “Synergistic enzymatic and bioorthogonal reactions for selective prodrug activation in living systems” (Nature Communications, 2018).

What was measured:
Saos-2 cells = assay: Clonogenic assay, Saos-2 cells; format: cell-based; details: pre-treated with 500 μM 2 for 6 h
Method: Supplementary Figure 17. Clonogenic assay of different cell lines before and after treatment with 2. HeLa cells, HUVECs and Saos-2 cells were seeded at density of 400 cells per well, CCC-HEH-2 cells were seeded at density of 200 cells per well. Cells were incubated with 500 µM 2 for 6 h in the treatment groups. Cells were not treated with compound 2 in the control groups. Colonies were harvest approximately 10 days after seeding. Scale bar, 10 mm.
Supplementary Figure 18. Cytotoxicity of activated Dox against HeLa cells and HUVECs. HeLa cells or HUVECs at the density of 3x10^3 cells per well were incubated with 100 µL of pre-warmed medium containing compound 2 at 300 or 500 µM for 6 h. After washing with PBS, 100 µL of 0.0001-10 µM TCO-Dox was added. After 72 h, cell proliferation was assessed by the MTT assay (n= 6). Error bars indicate standard […]
Supplementary Figure 19. […] At each time point, the remaining 2, corresponding generated 3 and remaining TCO-Dox were determined by UPLC-MS/MS. […]
Clonogenic assay of cells in vitro: Clonogenic assay was performed according to the standard protocol.6 2×10^5 attached cells were treated with 500 µM of 2 for 6 h in culture dishes. Cells were then detached, re-suspended in cultural medium and counted accurately. […]
The glutaraldehyde crystal violet mixture was removed carefully. […] The number of the colonies was counted using a stereomicroscope. […]

[1] = MTT cell viability / cytotoxicity assay, HUVECs; format: cell-based; details: human; 500 μM 2, 24 h, MTT
Method: Cells were plated in flat-bottom 96-well plates at a density of 3 × 10^3 cells per well. After 12 h of cell attachment, the cell culture medium was replaced with 100 μL of pre-warmed media containing the compounds at different concentrations. After 24–72 h of incubation, cell proliferation was assessed by the MTT assay. A fresh mixture of 10 μL of thiazolyl blue tetrazolium bromide (MTT) and 90 μL of medium were freshly added to each well. After incubation for 4 h, the medium was gently removed. The formazan crystals that formed were dissolved in 110 μL of DMSO, and the absorbance was subsequently measured with a plate reader (Perkin Elmer) at 490 nm. EC50 values were calculated using Origin software. To measure the cytotoxicity of 2, HeLa cells, HUVECs, Saos-2 cells and CCC-HEH-2 cells were incubated with 100 μL of 1–500 μM 2 for 24 h, and then, cell viability was determined. To measure the cytotoxicity of TCO-Dox or Dox, HeLa cells, HUVECs, Saos-2 cells or CCC-HEH-2 cells were incubated with 200 μL of 0.001–10 μM TCO-Dox or Dox for 72 h, and the cell viability was determined. To determine the cytotoxicity of activated Dox, HeLa cells, HUVECs, […], and then, 2 was removed and 200 μL of 0.0001–10 μM TCO-Dox was added for 72 h of incubation, and cell viability was determined. […]
Prodrug activation efficacy in cells: Cells were plated on flat bottom 96-well plates at a
density of 3x10^3 cells per well. After 12 h attachment, cells were incubated with 100 µL
500 µM of 2 for 6 h before removing 2 and the addition of 200 µL 0.0001-10 µM of […]

Structure (SMILES): Cc1nnc(-c2ccc(CC(=O)NCCCCC(NC(=O)Cc3ccc4ccccc4c3)C(=O)NC(Cc3ccc(OP(=O)(O)O)cc3)C(=O)NC(Cc3ccccc3)C(=O)O)cc2)nn1 (centres unmarked) [compound 2, NapK(Tz)YpF]
- Surviving Fraction, Saos-2 (Saos-2 cells): 0±0%
- viability at 24 h, 500 μM [1]: > 85%
